According to a melting point compilation (Tetko et al.; mined from patent text by program, amines drawn as free bases though some values may be those of a salt):

Point of comparison: `O=C(CO)N[C@H]1CC[C@H](CCN2CCC(c3cccc4c3CCO4)CC2)CC1`, melting point 154 °C. Against it:
- CCCCc1nc(SCC)c2ccccc2c1Cc1ccc(C(=O)OC)cc1 — lower, 70 °C
- Cc1ccc(/C=C/[C@@]2(O)C[C@H](O)CC(=O)O2)cc1 — lower, 126 to 127 °C
- CC1(C)OC(=S)Nc2ccc(-c3cccc(Br)c3)cc21 — higher, 191 to 193 °C
- CCOC(=O)[C@H](Cc1ccc(-c2c(OC)cc(CO)cc2OC)cc1)NC(=O)OC(C)(C)C — lower, 142 to 143 °C
- CNCC(O)COc1ccccc1 (configuration not stated) — lower, 74 to 77 °C
- Cc1cc(-c2ccc3c(c2)c2cc(-c4ccc(Cl)cc4Cl)c(=O)n(C)c2n3C)[nH]n1 — higher, 309 to 310 °C
- CS(=O)c1ccc(C2=C(c3ccccc3)C(=O)C(C)(C)O2)c(Cl)c1 (configuration not stated) — lower, 135 to 136 °C
- COc1ccc(CCOC(=O)NC(=O)C(c2ccccc2)c2ccccc2)cc1OC — lower, 144 °C
- COc1ccccc1OCCOS(N)(=O)=O — lower, 81.5 to 83 °C
- CC(C#Cc1ccc(Oc2ccc(Cc3ccc(F)cc3)cc2)o1)N(O)C(N)=O (configuration not stated) — lower, 145 to 147 °C
- CCCNC(=O)c1nc(-c2ccccc2)c(-c2ccc(=O)n(Cc3ccccc3)n2)s1 — lower, 120 to 121 °C
- Cc1nn(-c2c(Cl)cc(C(F)(F)F)cc2Cl)c(N)c1SC#N — lower, 134 °C
- O=C1NN=C(c2ccc(Cl)cc2)C2CC12 (configuration not stated) — higher, 199 to 200 °C
- CCSc1c(C(F)(F)F)nn(-c2c(Cl)cc(C(F)(F)F)cc2Cl)c1N — lower, 116 °C
- OCc1cnc2sc3ccccc3n12 — higher, 183 to 184 °C
- COC(=O)c1ccc2ccccc2c1OCC(F)(F)F — lower, 69.5 to 70.5 °C
- CN(C)S(=O)(=O)c1cc(N=C=O)ccc1Cl — lower, 82 to 85 °C
- CN1C(=O)CN(c2ccc(F)cc2)NC1=O — higher, 205 to 206 °C
- Cc1[nH]c(=O)c(C#N)cc1-c1csc(N)n1 — higher, 294 to 296 °C
- COC(=O)C(C)OC(=O)c1cc(-n2c(=O)cc(C(F)(F)F)n(C)c2=O)c(F)cc1Cl (configuration not stated) — lower, 102 to 104 °C
- Cc1ccccc1-c1cccc(C=NNC(=S)NN2CCCC2)n1 — higher, 172 to 173 °C
- CCOC(=O)C(C)(C)OCc1oc(-c2ccc(Cl)cc2)nc1C — lower, 75 to 76 °C
- C=CCC(O)CCCCCCCCCCCCCCCCC (configuration not stated) — lower, 48 to 50.5 °C
- CCC(CO)Nc1nc(NCc2ccccc2N)c2ncn(C(C)C)c2n1 (racemic) — lower, 149 to 151 °C
- [N-]=[N+]=NC(C(=O)O)C1c2ccccc2CCc2ccccc21 (configuration not stated) — lower, 101 to 102 °C
- CCOc1ccc(C=Nc2ccc(S(=O)(=O)NC(C)(C)C)cc2)cc1 — higher, 188 °C
- OCCCOC(c1ccccc1)(c1ccccc1)c1ccccc1 — lower, 117 to 118 °C
- Cc1cc(C)n(C)c(=O)n1 — lower, 58 to 60 °C
- O=C1c2cccc3cccc(c23)C(=O)N1CCCO — lower, 115 to 118 °C
- Nc1ccc(Nc2ccc(CCc3ccc(Cl)c(Cl)c3)cc2)c(C(=O)O)c1 — lower, 137 to 142 °C
- CCN(CC)c1ccc(/C=C/c2cc(/C=C/c3ccc4cc[nH]c4c3)[nH]n2)cc1 — higher, 201 to 204 °C
- Cc1nc(Cn2c(=O)sc3cc(F)ccc32)no1 — lower, 142 to 144 °C
- O=C(O)CCC(CC=Cc1ccccc1)(C(=O)C=Cc1ccc(Cl)cc1)c1ccccc1 (configuration not stated) — lower, 135 to 140 °C
- CC1(C)C(=O)Nc2ccc(-c3cccc(Cl)c3)cc21 — higher, 188 to 189 °C
- O=C(C(Cl)Cl)N1CCSC12CCCCC2 — lower, 149 to 151 °C
- CCOC(=O)C1=C(C)NC(CSC(=O)c2ccc(N)cc2)=C(C(=O)OCC)C1c1cccc([N+](=O)[O-])c1 (configuration not stated) — lower, 78 to 80 °C
- COc1cccc(CC(=NO)c2ccccc2)c1 — lower, 72 to 73 °C
- O=C(c1ccc(CBr)cc1)c1ccc([N+](=O)[O-])cc1 — lower, 113 °C
- CC(=O)Nc1cccc(C(=O)NCc2ccc(-n3c(-c4cccnc4N)nc4ccc(C)nc43)cc2)c1 — higher, 157 to 161 °C
- NNC(=O)Cn1c(=S)sc2ccccc21 — higher, 214 to 215 °C
- CCCCc1nc2cnc3cccnc3c2n1CCCCNC(=O)OC(C)(C)C — lower, 96 to 98 °C
- COC(=O)c1ccc(-c2c(CC(=O)Nc3ccc(F)cc3C(F)(F)F)c(=O)oc3cc(Cl)c(C)cc23)cc1 — higher, 202 to 204 °C
- CC(C)CC(S)C(=O)NC(CC(C)C)C(=O)NC(Cc1ccc(-c2cccs2)nc1)C(=O)O (configuration not stated) — higher, 156 to 158 °C
- COc1cc(C(=O)N2CCC(CCOS(C)(=O)=O)(c3ccc(Cl)c(Cl)c3)C2)cc(OC)c1OC (configuration not stated) — lower, 64 to 66 °C
- CC(CS)C(=O)Nc1cc(C(=O)O)ccn1 (configuration not stated) — higher, 247 to 248 °C
- Nc1c2c(nc3ccccc13)CCSC2 — higher, 214 to 216 °C
- COc1ccc(CSc2c(O)cc(-c3ccccc3)oc2=O)cc1 — higher, 168 to 170 °C
- CC1(C)CN(Cc2ccccc2)c2cc(Cl)cc(C(=O)NC3CN4CCC3CC4)c2O1 (configuration not stated) — higher, 174 to 175 °C
- Cc1cccc2cc3c(=O)n(C)cc(C(=O)N[C@@H](C)C(=O)N(C)C)c3nc12 — higher, 268 to 274 °C
- COc1nc2ccccc2c(-c2ccccc2)c1C(=O)N(C)Cc1cc(C(F)(F)F)cc(C(F)(F)F)c1 — lower, 146 to 147 °C
- Cc1ccc(C(=O)Nc2c[nH]nc2C(=O)NCCO)cn1 — higher, 233 to 235 °C
- NC1=CCC(c2nc3c(-c4cnn(-c5ccc(F)cc5)c4)cccn3n2)(C2CCNCC2)C=C1 (configuration not stated) — higher, 245 to 247 °C
- c1coc(C2=Nc3ccccc3N3CCc4cccc2c43)c1 — lower, 144 to 146 °C
- O=C(O)c1cc2ccoc2nc1C(=O)O — higher, 189 to 192 °C
- CC(C)Cc1nc2ccc(Cl)cc2c(-c2ccccc2)c1CN — lower, 114 to 116 °C
- CCc1nc2c(C)c(N)c(C)nc2[nH]1 — not separable, 153 to 155 °C
- Cn1c(C(F)(F)F)cc(=O)n(-c2c(F)cc(Cl)c3cc(CO)oc23)c1=O — higher, 198 to 199 °C
- CC(=O)N1CCN(Cc2ccc(O)cc2)CC1 — lower, 130 to 132 °C
- O=Cc1ccc(C(=O)O)c(SCc2ccccc2)c1 — higher, 182 to 190 °C
- Cn1c(=O)c2c(-c3nc(C4CC4)no3)ncn2c2cccnc21 — higher, 266 to 269 °C
- CC(C)(C)n1nc2c(N)nc3ccccc3c2c1CCCNS(C)(=O)=O — higher, 223 to 224 °C
- CS(=O)c1nc(-c2ccccc2)cs1 (configuration not stated) — lower, 104 to 105 °C
- COc1c(C2CCN(CCCCNC(=O)c3sc(-c4ccc(Cl)cc4)nc3CO)CC2)ccc2c1CCCC2 — higher, 198 to 200 °C
- CNc1cc(Oc2cc(C(F)(F)F)nn2C)nc(Oc2cc(C(F)(F)F)nn2C)c1 — lower, 118 °C
- CC1(C)NCCc2ccccc2C1c1ccccc1 (configuration not stated) — lower, 99 to 100 °C
- CC(c1oc2ccccc2c(=O)c1-c1cccc(F)c1)n1nc(-c2cccc(C(=O)NC3CC3)c2)c2c(N)ncnc21 (configuration not stated) — lower, 127 to 132 °C
- CC(CCl)(c1cc(Cl)nnc1Cl)C(Cl)Cl (configuration not stated) — lower, 82 to 85 °C
- N#CCCNC(=O)c1cccc(-c2ccc3c(c2)C(c2ccc(Cl)cc2Cl)CC3)c1 (configuration not stated) — lower, 112 to 114 °C
- COc1ccc(S(=O)(=O)N2Cc3cc4c(cc3CC2C(=O)NO)OCO4)cc1 (configuration not stated) — higher, 166 °C
- O=C(C(=O)N1CCC(N2CCCCC2)CC1)c1ccc2n1Cc1ccccc1N(C(=O)c1ccc(C3CCCCC3)cc1)C2 — higher, 190 to 195 °C
- CCN1CCC2(CC1)c1ccccc1Sc1c(O)cccc12 — higher, 223 to 225 °C
- CNC(=S)NS(=O)(=O)c1cc2c(cc1C)OCC(NC(=O)c1cc(Cl)ccc1OC)C2 (configuration not stated) — higher, 207 to 208 °C
- CSc1nc(Cl)c(Cl)nc1Cl — lower, 45 to 47 °C
- COc1ccc(-c2c(C)ccn2-c2ccc(S(C)(=O)=O)cc2)cc1 — lower, 131 to 132 °C
- CCCc1c(O)c(C(C)=O)cc(I)c1OCc1ccc(C(=O)O)cc1 — higher, 167 to 168 °C
- Cc1cc(Cl)c([N+](=O)[O-])cc1NCCO — lower, 110 °C
- C/C(=N\O)c1cccc(NC(=O)NCC(=O)N2[C@@H](C(=O)OC(C)(C)C)CC[C@H]2c2ccccc2)c1 (racemic) — lower, 118 °C
- CC1=Cc2cc(C#N)ccc2OC1(C)C — lower, 55 °C
- CC(=O)OC1CC2=CCC3C4CCC(C(C)CI)C4(C)CCC3C2(C)C(OC(C)=O)C1 (configuration not stated) — lower, 135 to 136 °C
- CCOCCOc1ccccc1COc1ccc2c(c1)C=C(C(=O)Nc1ccc(CN(C)C3CCOCC3)cc1)CCS2(=O)=O — lower, 132 to 136 °C
- N#CCCCOc1ccc(/C=C/C(=O)O)c(Oc2ncc(C(F)(F)F)cc2Cl)c1 — higher, 183 to 185 °C
- COc1cccc(OCCCNC(=O)OC(C)(C)C)c1-c1cc(Nc2cnc(C#N)cn2)n[nH]1 — higher, 214 to 216 °C
- Cc1cc(OCc2sc(-c3ccc(C(F)(F)F)cc3)nc2C)ccc1Cc1nn[nH]n1 — higher, 165 °C
- CSC(=CC(=O)c1cncc(F)c1)SC — lower, 150 to 152 °C
- COc1ncc(-c2ccncc2)cc1Br — lower, 136 to 138 °C
- O=C(O)CCc1cc2cc(-c3ccc(C(F)(F)F)cc3)ccc2n1S(=O)(=O)c1ccccc1 — higher, 162 °C
- OCc1nc(-c2ccc3nc(-c4ccc(Cl)cc4)cn3c2)cs1 — higher, 190 to 192 °C
- CN(C)C=C(C#N)C(=O)c1nccs1 — lower, 126 °C
- CC(=NOCCOc1ccc(CC2SC(=O)NC2=O)cc1)c1ccc(-c2ccc(F)cc2)cc1 (configuration not stated) — higher, 155 to 156 °C
- Cc1nn(-c2ccccn2)c2[nH]c3ccc(C(F)(F)F)cc3c(=O)c12 — higher, 250 to 251 °C
- CC1(c2ccccc2)CNC(=O)O1 (configuration not stated) — lower, 144 to 145 °C
- O=C(Nc1ccc(CBr)c(C(F)(F)F)c1)C(F)(F)F — lower, 119 to 120 °C
- O=C1CN(c2cncc(Cl)n2)CCN1 — higher, 192 to 193 °C
- Oc1nnc(Cl)cc1N1CCNCC1 — lower, 35 °C
- COc1nc2ccc(Cl)cc2nc1Sc1nnc(C)s1 — higher, 186 to 188 °C
- C[C@@H](S)[C@](O)(Cn1ccnc1)c1ccc(F)cc1F — lower, 125 to 135 °C
- CCOC(=O)c1c(SC)nc(C2CC2)n1Cc1ccc(-c2ccccc2S(=O)(=O)NC#N)cc1 — higher, > 260 °C
- Cc1cc(C)n(C(=O)C2c3ccccc3Oc3ccccc32)n1 — lower, 114 to 115 °C
- CC#Cc1ncn2c1[C@@H]1CCCN1C(=O)c1c(Cl)cccc1-2 — higher, 208 to 209 °C
- CCCc1c(C(=O)C2CCCCC2)c2ccc(C(N)=O)cc2n1Cc1ccccc1Cl — higher, 208 to 210 °C
- CC(C)CNc1c([N+](=O)[O-])c2nnnn2c2cnccc12 — higher, 173 to 174 °C
